The source made the active and inactive calls. The calls are words filed in the database; no cut-off is given here.
How the values were obtained:
[1] = target: T1, Prostaglandin G/H synthase 1 (Homo sapiens, UniProt P23219); experiment: Inhibition of COX1 at 100 uM
[2] = target: T1, Prostaglandin G/H synthase 1; experiment: Inhibition of COX1
[3] = target: T2, Prostaglandin G/H synthase 2 (Homo sapiens, UniProt P35354); experiment: Inhibition of COX2
T2 sequence (P35354 whole entry): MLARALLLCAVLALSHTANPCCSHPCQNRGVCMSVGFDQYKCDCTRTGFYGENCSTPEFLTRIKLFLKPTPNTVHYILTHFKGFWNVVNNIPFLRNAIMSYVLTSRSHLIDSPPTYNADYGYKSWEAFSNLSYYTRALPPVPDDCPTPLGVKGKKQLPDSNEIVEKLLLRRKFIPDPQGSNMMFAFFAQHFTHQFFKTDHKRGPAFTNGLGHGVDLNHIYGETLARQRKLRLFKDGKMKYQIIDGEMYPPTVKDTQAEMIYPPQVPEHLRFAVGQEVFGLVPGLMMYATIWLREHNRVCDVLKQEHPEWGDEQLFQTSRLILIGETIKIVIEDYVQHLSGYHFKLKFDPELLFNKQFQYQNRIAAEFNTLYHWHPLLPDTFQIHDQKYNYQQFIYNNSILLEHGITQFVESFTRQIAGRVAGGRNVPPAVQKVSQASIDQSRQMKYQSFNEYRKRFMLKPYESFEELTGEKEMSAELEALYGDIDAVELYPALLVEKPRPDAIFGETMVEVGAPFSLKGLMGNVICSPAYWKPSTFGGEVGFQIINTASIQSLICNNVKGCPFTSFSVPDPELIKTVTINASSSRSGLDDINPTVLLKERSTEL

T98G [4] = experiment: Cytotoxicity against multidrug-resistant human T98G cells expressing MRP-1 at 50 uM after 3 days by crystal violet staining analysis; assay type: cell-based; settings: 72 h
T98G [5] = experiment: Potentiation of doxorubicin-induced cytotoxicity against multidrug-resistant human T98G cells expressing MRP-1 at 50 uM pretreated for 2 hrs prior addition of doxorubicin measured after 3 days by crystal violet staining analysis; assay type: functional, cell-based

T1 sequence (P23219 whole entry): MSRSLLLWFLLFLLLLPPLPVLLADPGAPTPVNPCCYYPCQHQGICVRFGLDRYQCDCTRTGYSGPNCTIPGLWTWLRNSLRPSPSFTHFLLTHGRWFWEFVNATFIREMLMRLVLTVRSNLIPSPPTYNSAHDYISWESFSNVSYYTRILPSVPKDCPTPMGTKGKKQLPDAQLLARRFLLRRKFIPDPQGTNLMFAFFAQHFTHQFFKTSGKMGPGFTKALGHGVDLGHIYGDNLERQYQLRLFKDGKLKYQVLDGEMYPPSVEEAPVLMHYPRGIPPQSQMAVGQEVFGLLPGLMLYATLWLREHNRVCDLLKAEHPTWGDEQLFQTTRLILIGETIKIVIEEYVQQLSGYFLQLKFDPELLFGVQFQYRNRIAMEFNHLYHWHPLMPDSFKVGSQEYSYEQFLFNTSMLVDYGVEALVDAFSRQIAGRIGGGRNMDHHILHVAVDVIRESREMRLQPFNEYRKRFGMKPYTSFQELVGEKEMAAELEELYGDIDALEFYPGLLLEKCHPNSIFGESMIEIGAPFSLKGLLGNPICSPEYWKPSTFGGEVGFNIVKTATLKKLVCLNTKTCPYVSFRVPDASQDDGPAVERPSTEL

SMILES	inhibition [1] [%]	IC50 [2] [µM]	IC50 [3] [µM]	Activity (T98G [4])	Activity (T98G [5])
CCc1c(CC(=O)O)c2ccccc2n1C(=O)c1ccc(Cl)cc1	< 0	> 400	> 400	Non-toxic	Active
CC(=O)Oc1ccccc1C(=O)O	38				
Cc1c(CC(=O)O)c2ccccc2n1C(=O)c1ccc(Cl)cc1	79	0.01	39		
O=C(O)Cc1c(-c2ccccc2)n(C(=O)c2ccc(Cl)cc2)c2ccccc12	< 0	> 400	> 400	Non-toxic	Active

— ChEMBL document CHEMBL1944630, “Indomethacin Analogues that Enhance Doxorubicin Cytotoxicity in Multidrug Resistant Cells without Cox Inhibitory Activity” (ACS Med Chem Lett, 2011)
